Reference: US5403824A, “Methods for the treatment of osteoporosis” (The Procter & Gamble Company, priority 1993, dated 1995)

Assays:
enkephalinase = enkephalinase inhibition, cleavage of N-suc-Ala-Ala-Phe-AMC by osteoblast-like cells, fluorescence; assay type: biochemical, rat or mouse; settings: substrate N-succinyl-alanyl-alanylphenylalanyl-7-amido-4-methyl coumarin, 37° C., one hr
Text: One such model is described by Spillantini et al., 12 Eur. J. Pharmacol 142-150 (1986), which has been modified by Applicants. (Applicants' modification consists of using osteoblast-like cells, rather than human serum, as the source of enkephalin-degrading enzymes.) This model measures inhibition of the enkephalin-degrading enzyme "enkephalinase". According to Applicants' modified method, the source of the enkephalin-degrading enzymes i s rat osteoblast-like cells or mouse osteoblast-like cells (MC3T3-E1 cells). The substrate used is N-succinyl-alanyl-alanyl-phenylalanyl-7-amido-4-methyl coumarin (hereafter N-suc-Ala-Ala-Phe-AMC), which is known to be cleaved at the Ala-Phe peptide bond by enkephalinase. […] Aminopeptidase, which is known to specifically cleave only Phe-AMC (at the Phe-AM(peptide bond), is then added to the sample. Cleavage by aminopeptidase yields the metabolites AMC (fluorescent) and Phe. Fluorescence is then measured and is directly proportional to the amount of substrate degraded by enkephalinase.
Specifically, a test sample (containing enzyme and a putative enkephalinase inhibitor) and a control sample (containing only enzyme) are equilibrated. A quantified amount of substrate is then added to both samples. […] Fluorescence of the samples is then measured, greater fluorescence corresponding to greater degradation of the substrate by enkephalinase. […]

[1] = tested on: human subject with postmenopausal osteoporosis or low bone mass; assay: treatment of human subject with osteoporosis, vertebral density by dual-energy photon absorptiometry; assay type: in vivo
Experimental: A human subject weighing about 60 kg (132 lbs), suffering from postmenopausal osteoporosis, is treated by a method of this invention. Specifically, for two years, the enkephalin-degrading enzyme inhibitor DL-3-mercapto-2-benzylpropanoylglycine is administered orally, in a cyclical regimen, where each cycle consists of an active period of 28 days during which a tablet containing 160 mg of said inhibitor is administered each day, followed by a non-active period of 28 days during which the subject receives a daily supplement of calcium (1,000 mg/day), with repeat of cycle.
A human subject weighing about 60 kg (132 lbs), suffering from postmenopausal osteoporosis, is treated by a method of this invention. Specifically, for two years, the compound H-Tyr-D-Ala-Gly-Phe-D-Leu-OH ("DADLE") is administered to the subject, in a cyclical regimen, where each cycle consists of an active period of 28 days during which a solution containing 30 mg of DADLE is administered intravenously every day, followed by a non-active period of 28 days during which the patient receives a daily supplement of calcium (1,000 mg/day), with repeat of cycle.
(§1) A human subject weighing about 60 kg (132 lbs), suffering from postmenopausal osteoporosis, is treated by a method of this invention. Specifically, for two years, an enkephalin of the formula Tyr-D-Cys(S-t-butylthioether)-Gly-Phe-Leu-Thr(O-t-butylether) ("BUBUC") is administered to the subject, in a cyclical regimen, where each cycle consists of an active period of 28 days during which a solution containing 30 mg of BUBUC is intravenously administered each day, followed by a non-active period of 28 days during which the patient receives a daily supplement of calcium (1,000 mg/day), with repeat of cycle.
as §1, with “years, the” for “years, an”, “enkephalin secretagogue Tyr-Arg^1,” for “enkephalin of the formula Tyr-D-Cys(S-t-butylthioether)-Gly-Phe-Leu-Thr(O-t-butylether) ("BUBUC")”, “of Tyr-Arg” for “of BUBUC”, “the subject” for “the patient”, “cycle. […]” for “cycle.”
A human subject weighing about 60 kg (132 lbs), suffering from postmenopausal osteoporosis, is treated by a method of this invention. Specifically, each day for five years, the subject is administered 3 tablets, comprised as follows.
A human subject weighing about 60 kg (132 lbs) is evaluated approximately four years after spontaneous menopause, and is found to have low bone mass. The subject is then treated by a method of this invention to treat osteoporosis. Specifically, once each month for five years, the subject is administered, via intravenous injection, 5 ml of a solution comprised as follows.

## O=C(O)CNC(=O)C(CS)Cc1ccccc1 (racemic) [DL-3-mercapto-2-benzyl-propanoylglycine]
enkephalinase
  inhibition of substrate degradation by enkephalinase (fluorescence vs control): significantly inhibited substrate degradation by enkephalinase
[1]; Example 7: 3 tablets of 50.0 mg each day for five years
  density of vertebrae / bone mass: no significant loss in bone mass has occurred
[1]; oral tablet 160 mg daily, 28 days active / 28 days calcium, two years
  density of vertebrae / bone mass: an increase in bone mass
